Laboratory results reported in patent US5972894A, “Peptides having potassium channel opener activity” (Cytran, Inc., priority 1997, dated 1999).
Residues, ends and D or L forms follow the SMILES beside them.

Key:
mice = test: Chloroform-induced arrhythmia; assay type: in vivo
Protocol: Each mouse in the study was treated by intraperitoneal injection of a dose of a test or control substance 15 minutes prior to the administration of a deep chloroform anesthesia. A test or control substance was then administered to each mouse. […] Novocainamide, a known antiarrhythmic agent, served as the positive control substance and was administered to mice in the positive control group at a dose of 240 mg/kg. Physiological saline served as the negative control substance and was administered to the mice in the negative control group.
Chloroform anesthesia was administered to each mouse by placing the mouse in an airtight glass container with cotton wool soaked in 20 ml of absolute chloroform. At the moment of respiratory arrest, the mouse was removed from the jar and electrocardiogram (ECG) monitoring (standard lead II) was initiated and continued for 30 seconds. […] An antiarrhythmic activity for a particular dose of a test substance is pharmaceutically acceptable if 30% of the animals in a test group show the latter test results (i.e., namely, no sign of ventricular paroxysmal rhythm disturbances and heart rate below 100 beats per 30 seconds within 30 seconds following the respiratory arrest).

[1] = system: Smooth Muscle Cells of Rat Portal Vein; test: Spontaneous contractile activity of rat portal vein smooth muscle specimens; assay type: cell-based; conditions: 10^-6 g/ml
Protocol: Rat portal vein SMS samples were surgically isolated from random bred rats weighing 200-250 g. The suitability of each isolated rat portal vein SMS was established by measuring the spontaneous contraction response and its contractile response of the specimen to potassium chloride (KCl) as follows. Each isolated SMS was placed into an organ bath with standard Krebs-Henseleit (KH) solution at 35° C. Then, 0.5 ml of physiological saline were added into the organ bath. In this procedure, one end of the smooth muscle strip was fixed, while the other end of the muscle strip was connected with a probe which transmitted contraction-induced signals to an analog-to-digital converter. The spontaneous contraction curve for each SMS was recorded by taking repeated measurements over a 1-minute period. Next, 0.5 ml of a 600 mM solution of KCl in physiological saline was added to the SMS sample/organ bath to achieve a final concentration of 60 mM KCl. KCl induces contraction of rat portal vein tissue at a fmal tissue concentration of about 60 mM.
The KCl-induced contraction curve for each specimen sample was then recorded over the next 5-minute period. […] During this stabilization period, the spontaneous contraction curve for each SMS was verified by monitoring the data obtained from analog-to-digital converter.
To each SMS in the organ bath prepared according to Steps 2 and 3 above, 0.5 ml of physiological saline was added, and the spontaneous contraction curve was recorded for 1 minute. Each spontaneous contraction curve served as baseline (control) curve for comparison with the respective spontaneous contraction of each SMS in the presence of a test substance or reference substance.
Spontaneous contraction curve values for each SMS were recorded by making repetitive measurements of the spontaneous contractile activity of each sample at 2, 5, 10, and 15 minutes after the addition of the test or reference substance to each SMS/organ bath. Next, 0.5 ml of a solution of 600 mM solution of KCl in […] in the organ bath until a final concentration of 60 mM KCl was achieved. The contractile activity of each SMS was then measured for 5 minutes.

Intestinal Smooth Muscle = test: Calcium-induced contraction of intestinal smooth muscle specimens; assay type: cell-based, guinea pigs; conditions: for Contraction Amplitude, calcium-induced (% of control level): 20 mM CaCl2
Protocol: GE and VT served as test substances in this experiment. GE was tested at concentrations of 10^-6 g/ml and 10^-5 g/ml (4.9×10^-6 M and 4.9×10^-5 M, respectively), and VT was tested at concentrations 10^-6 g/ml and 10^-5 g/ml (4.58×10^-6 and 4.58×10^-5 M, respectively).
Small intestinal SMS samples from ten guinea pigs were surgically isolated and prepared as follows. First, the SMS samples were preincubated for 40 minutes in an organ bath holding a standard Krebs-Henseleit physiological salt solution containing calcium chloride (CaCl2) at concentration of 2.5 mM. Next, each SMS was washed with a calcium-free solution of Krebs-Henseleit and incubated in a calcium-free Krebs-Henseleit solution for 40 minutes. Contractile activity was pre-induced in each SMS by first perfusing the organ bath containing the sample for 15 minutes with a Krebs-Henseleit solution containing 30 mM KCl and then perfusing the bath for an additional 15 minutes with a Krebs-Henseleit solution containing 20 mM CaCl2. Finally, each SMS sample was washed with a calcium-free Krebs-Henseleit solution for 40 minutes. In these experiments, measurements of the contractile response of the SMS following the addition of a Krebs-Henseleit solution containing 20 mM calcium served as the control (baseline). Changes in contraction amplitudes were recorded by using the method set forth in Step 1 of Example 2, above.
After washing the SMS as outlined in Step 1, the organ bath with the SMS sample was perfused for 15 minutes with the solution of a test or reference substance. In this instance, GE and VT served as the test substances, and each dipeptide was tested at a concentration of 10^-6 g/ml.
Following perfusion with the test or reference substance, the SMS sample/organ bath was perfused for 10 minutes with a Krebs-Henseleit solution containing 30 mM KCl and then perfused for an additional 10 minutes with a Krebs-Henseleit solution containing 20 mM CaCl2. Next, each SMS sample was washed with a calcium-free Krebs-Henseleit solution for 40 minutes. The effect of the test or reference substance on the SMS sample was evaluated by measuring the contractile response (i.e., the change in contraction amplitude) of the sample following the addition of the Krebs-Henseleit solution containing 20 mM CaCl2.
Next, the organ bath was perfused for 10 minutes with a Krebs-Henseleit solution containing 30 mM KCl and then for additional 10 minutes with a Krebs-Henseleit solution containing 20 mM CaCl2. The effect of the respective test or reference substance was evaluated a second time by measuring the change in the contraction amplitude of the SMS following the addition of the Krebs-Henseleit solution containing 20 mM CaCl2. […]

[2] = 0.001 mg/kg i.p. 15 min before chloroform
[3] = 0.01 mg/kg i.p. 15 min before chloroform
[4] = 0.1 mg/kg i.p. 15 min before chloroform
[5] = 1.0 mg/kg i.p. 15 min before chloroform
[6] = 10.0 mg/kg i.p. 15 min before chloroform

In the case of NCC(=O)N[C@@H](CCC(=O)O)C(=O)O [GE, L-Glycyl-L-Glutamic acid] (H-Gly-Glu-OH), the “Antiarrhythmic Effect (no. animals) %” value (mice; [2]) is reported as 11.1%, the “Antiarrhythmic Effect (no. animals) abs” value (mice; [2]) is reported as 1 and the Result (mice; [2]) is reported as “No effect”. For the same molecule, the “Antiarrhythmic Effect (no. animals) %” value (mice; [3]) was 44.4%, the “Antiarrhythmic Effect (no. animals) abs” value (mice; [3]) was 4 and the Result (mice; [3]) was “Antiarrhythmic effect”. The “Antiarrhythmic Effect (no. animals) %” value (mice; [4]) was 44.4%, the “Antiarrhythmic Effect (no. animals) abs” value (mice; [4]) was 4 and the Result (mice; [4]) was “Antiarrhythmic effect”. For the same molecule, the “Antiarrhythmic Effect (no. animals) %” value (mice; [5]) was 55.6%, the “Antiarrhythmic Effect (no. animals) abs” value (mice; [5]) was 5 and the Result (mice; [5]) was “Antiarrhythmic effect”. For the same molecule, the “prevention of chloroform-induced ventricular arrhythmias” value (mice; 0.01, 0.1, 1.0, or 10.0 mg/kg) was “prevent the development of ventricular arrhythmias”, the “Antiarrhythmic Effect (no. animals) %” value (mice; [6]) was 66.7% and the “Antiarrhythmic Effect (no. animals) abs” value (mice; [6]) was 6. The Result (mice; [6]) was “Antiarrhythmic effect”, the “effect on spontaneous contractions (amplitude and area under curve)” value [1] was “appreciably reduced the amplitude of and area under the contraction curve” and the “Amplitude of spontaneous contraction (% of Control)” value (shortened to “Amplitude … (% of Control)”) ([1]; 2 min after application) was 114.93%. For the same molecule, the “Area Under Curve of spontaneous contraction (% of Control)” value (“Area Under Curve … (% of Control)” below) ([1]; 2 min after application) was 134.77%, the “Amplitude … (% of Control)” value ([1]; 5 min after application) was 75.56% and the “Area Under Curve … (% of Control)” value ([1]; 5 min after application) was 87.51%. For the same molecule, the “Amplitude … (% of Control)” value ([1]; 10 min after application) was 60.37%, the “Area Under Curve … (% of Control)” value ([1]; 10 min after application) was 70.07% and the “Amplitude … (% of Control)” value ([1]; 15 min after application) was 63.94%. For the same molecule, the “Area Under Curve … (% of Control)” value ([1]; 15 min after application) was 75.08%, the “effect on calcium-induced intestinal smooth muscle tonic contraction” value (Intestinal Smooth Muscle; 10^-6 and 10^-5 g/ml) was “significantly reduced the amplitude” and the “Contraction Amplitude, calcium-induced (% of control level)” value (Intestinal Smooth Muscle; Application I, 10^-6 g/ml) was 51.08%. The “Contraction Amplitude, calcium-induced (% of control level)” value (Intestinal Smooth Muscle; Application II, 10^-5 g/ml) was 33.14%.
